From paper PMC12016938, “A small molecule PKCε inhibitor reduces hyperalgesia induced by paclitaxel or opioid withdrawal” (JCI Insight, 2025)
Several values for one entry are separate records, joined by “and”; a condition that tells them apart may be missing. Identical values can stand only once. Counter-ions that a name gives are not always drawn.

System: self-administration (addictive potential)
Test: I.v. self-administration of CP612, between-session progressive ratio and demand curve
Procedure: We tested the addictive potential of CP612 by examining the extent to which rats are willing to work to obtain CP612. Rats were initially trained to self-administer either saline, morphine (500 μg/kg/i.v. infusion), or 1 of 3 different doses of CP612 (75, 150, or 300 μg/kg/i.v. infusion) for 4 days at fixed ratio 1 (FR1, where 1 nose poke delivers 1 infusion).
During the second phase, the ratio to obtain an infusion increased geometrically every other day (FR1, FR3, FR6, FR12, FR24, FR48, and FR96).
Data (number of self-infusions) were also fitted in an economic-demand curve, which provides an estimate of the motivation to obtain drugs and their addictive potential ([20]). We measured elasticity (α), which is the relative change in consumption as a function of price (i.e., ratio of nose pokes required to obtain an infusion). Behavior is considered “inelastic” when consumption is insensitive to price and “elastic” when consumption is sensitive to price. We also measured Pmax, which is the price at which intake switches from inelastic to elastic. […] (Figure 8B).
Rats not immediately anesthetized were eliminated from the study.
Following this initial acquisition phase at FR1, the ratio to obtain the drug was increased geometrically every other day: FR3 (3 nose pokes are required to obtain 1 infusion of morphine), FR6, FR12, FR24, FR48, and FR96. This allows for analysis of drug consumption as a function of “price” using demand curves for behavioral economics, which can estimate the motivation to obtain drugs and their “addictive potential” ([20]). For this, data from each rat were fitted to the equation log Q = log Q0 + k (e ^–α(Q0 ^C) – 1), where Q represents consumption (number of self-infusions), and Q0 represents the level of consumption at the lowest price. C represents price for the drug (i.e., the ratio), and k is set to a constant accounting for the estimated range of consumption in logarithmic units (k = 4 in these studies). The symbol α is the relative change in consumption across changes in price (ratio). Behavior is considered “inelastic” when consumption is insensitive to price (i.e., the curve is flat, and consumption is maintained despite increases in price), and it switches to “elastic” when consumption is sensitive to price (i.e., when the curve is steep and consumption declines with increases in price). […] We also compared groups for their average intake in the consumption-price curves by measuring α (elasticity) and Pmax.

[1] = morphine, individual rats, column in the AH block

## CN1CC[C@]23c4c5ccc(O)c4O[C@H]2[C@@H](O)C=C[C@H]3[C@H]1C5 [Morphine, Morphine sulfate, reference compound]
morphine, individual rats
  AVG Latency (FR3): 0.17 and 0.173 and 1.3 and 0.2 and 0.6 and 1.9
  AVG Latency (FR6): 1.3 and 0.175 and 0.8 and 2.9 and 1.1 and 1.4
  AVG Latency (FR12): 0.435 and 0.663 and 0.7 and 0.227 and 2.8 and 2.7
  AVG Latency (FR24): 1.2 and 0.75 and 0.9 and 0.754 and 0.6 and 2.4
  AVG Latency (FR48): 0.8 and 0.428 and 0.738 and 0.951 and 1.0
  AVG Latency (FR96): 0.9 and 0.7 and 1.4 and 0.6 and 1.6
  D1 AH (FR1): 15 and 13 and 16 and 19 and 12
  D1 AH (FR3): 44 and 27 and 25 and 19 and 17 and 29
  D1 AH (FR6): 38 and 54 and 48 and 37 and 30 and 17
  D1 AH (FR12): 76 and 90 and 97 and 95 and 40 and 39
  D1 AH (FR24): 167 and 144 and 79 and 198 and 125 and 58
  D1 AH (FR48): 269 and 254 and 72 and 297 and 145 and 69
  D1 AH (FR96): 243 and 334 and 76 and 204 and 237 and 36
  D1 IH (FR1): 11 and 22 and 18 and 9 and 7
  D1 IH (FR3): 16 and 9 and 5 and 2 and 13 and 11
  D1 IH (FR6): 3 and 5 and 7 and 18 and 10
  D1 IH (FR12): 10 and 5 and 16 and 3 and 7
  D1 IH (FR24): 14 and 6 and 19 and 5 and 10
  D1 IH (FR48): 8 and 18 and 11 and 9 and 7 and 12
  D1 IH (FR96): 9 and 26 and 16 and 12 and 28
  D1 Inf (FR1): 9 and 8 and 12 and 10
  D1 Inf (FR3): 11 and 8 and 5 and 4
  D1 Inf (FR6): 6 and 7 and 4 and 2
  D1 Inf (FR12): 6 and 7 and 3
  D1 Inf (FR24): 6 and 5 and 3 and 8 and 4 and 2
  D1 Inf (FR48): 5 and 1 and 2
  D1 Inf (FR96): 2 and 3 and 0
  D1 Latency (FR1): 9.3 and 15.1 and 26.3 and 3.9 and 5.9 and 0.853
  D1 Latency (FR3): 0.238 and 0.2 and 1.5 and 0.9 and 0.358
  D1 Latency (FR6): 0.072 and 0.225 and 1.0 and 0.4 and 0.178 and 1.6
  D1 Latency (FR12): 0.038 and 1.0 and 0.6 and 0.032 and 1.6 and 1.2
  D1 Latency (FR24): 1.5 and 0.075 and 0.5 and 0.328 and 0.538 and 3.9
  D1 Latency (FR48): 0.107 and 0.4 and 0.5 and 1.0 and 1.4 and 1.2
  D1 Latency (FR96): 0.7 and 0.8 and 1.4 and 0.438 and 2.3
  D2 AH (FR1): 16 and 10 and 8 and 18 and 17
  D2 AH (FR3): 43 and 31 and 37 and 17 and 20 and 19
  D2 AH (FR6): 49 and 53 and 43 and 40 and 32 and 25
  D2 AH (FR12): 48 and 86 and 32 and 113 and 38 and 44
  D2 AH (FR24): 162 and 155 and 80 and 176 and 120 and 64
  D2 AH (FR48): 196 and 251 and 75 and 213 and 125 and 57
  D2 AH (FR96): 164 and 368 and 38 and 192 and 184 and 36
  D2 IH (FR1): 9 and 4 and 12 and 6 and 11
  D2 IH (FR3): 4 and 6 and 12 and 14 and 17 and 7
  D2 IH (FR6): 10 and 9 and 13 and 8 and 12
  D2 IH (FR12): 12 and 14 and 22 and 7 and 1
  D2 IH (FR24): 8 and 14 and 11 and 10 and 7
  D2 IH (FR48): 9 and 13 and 27 and 12 and 14
  D2 IH (FR96): 8 and 11 and 15 and 13 and 24
  D2 Inf (FR1): 11 and 9 and 7 and 10 and 12
  D2 Inf (FR3): 10 and 9 and 11 and 5
  D2 Inf (FR6): 8 and 7 and 6 and 4
  D2 Inf (FR12): 4 and 6 and 2 and 9 and 3
  D2 Inf (FR24): 6 and 3 and 7 and 4 and 2
  D2 Inf (FR48): 4 and 5 and 1 and 2
  D2 Inf (FR96): 1 and 3 and 0
  D2 Latency (FR1): 0.152 and 0.662 and 1.3 and 0.455 and 0.133 and 2.0
  D2 Latency (FR3): 0.1 and 0.137 and 1.1 and 0.19 and 0.327 and 3.5
  D2 Latency (FR6): 2.5 and 0.125 and 0.7 and 5.3 and 1.9 and 1.1
  D2 Latency (FR12): 0.8 and 0.372 and 0.7 and 0.422 and 4.1
  D2 Latency (FR24): 0.9 and 1.4 and 1.3 and 1.2 and 0.7 and 0.8
  D2 Latency (FR48): 1.4 and 0.457 and 1.0 and 0.9 and 0.543 and 0.367
  D2 Latency (FR96): 1.1 and 0.555 and 1.4 and 0.748 and 0.66 and 1.0
  D3 AH (FR1): 24 and 13 and 8 and 20 and 17
  D3 IH (FR1): 18 and 4 and 15 and 3 and 20 and 8
  D3 Inf (FR1): 10 and 7 and 14
  D3 Latency (FR1): 0.3 and 0.137 and 7.8 and 0.352 and 0.9 and 0.327
  D4 AH (FR1): 23 and 12 and 13 and 17 and 15
  D4 IH (FR1): 3 and 5 and 8 and 6 and 9
  D4 Inf (FR1): 13 and 10 and 11 and 9 and 8
  D4 Latency (FR1): 0.06 and 0.143 and 4.0 and 0.342 and 1.1
  last AH (FR1): 21 and 12 and 18 and 22 and 14 and 10
  last IH (FR1): 4 and 1 and 3 and 7 and 9
  last Inf (FR1): 15 and 10 and 12 and 17 and 9 and 7
  last Latency (FR1): 0.5 and 0.7 and 2.0 and 0.017 and 0.4 and 1.1
  last-1 AH (FR1): 23 and 12 and 13 and 17 and 15
  last-1 IH (FR1): 3 and 5 and 8 and 6 and 9
  last-1 Inf (FR1): 13 and 10 and 11 and 9 and 8
  last-1 Latency (FR1): 0.06 and 0.143 and 4.0 and 0.342 and 1.1
  last-2 AH (FR1): 24 and 13 and 8 and 20 and 17
  last-2 IH (FR1): 18 and 4 and 15 and 3 and 20 and 8
  last-2 Inf (FR1): 10 and 7 and 14
  last-2 Latency (FR1): 0.3 and 0.137 and 7.8 and 0.352 and 0.9 and 0.327
  last-3 AH (FR1): 24 and 13 and 8 and 18 and 10 and 17
  last-3 IH (FR1): 18 and 4 and 12 and 6 and 11
  last-3 Inf (FR1): 10 and 7 and 11 and 12
  last-3 Latency (FR1): 0.3 and 0.137 and 1.3 and 0.455 and 0.133 and 2.0
[1]
  AVG Inf (FR1_D1 to D4): 19.5 and 12.0 and 11.0 and 16.8 and 14.8 and 15.3
  AVG Inf (FR1_Last 2 FR1 days): 22.0 and 12.0 and 15.5 and 17.5 and 12.5
  AVG Inf (FR1_Last 4 FR1 days): 23.0 and 12.5 and 11.8 and 18.3 and 13.5 and 14.8
per-rat average
  AVG AH (FR3): 24.0 and 20.5 and 23.0
  AVG AH (FR6): 55.0 and 42.0 and 46.5
  AVG AH (FR12): 107.5 and 82.0 and 88.0
  AVG AH (FR24): 143.0 and 145.0 and 172.0
  AVG AH (FR48): 138.0 and 149.0 and 142.5
  AVG AH (FR96): 116.5 and 141.0 and 156.0
  AVG IH (FR1_Last 2 FR1 days): 1.5 and 3.0
  AVG IH (FR6): 4.5 and 8.5 and 7.5
  AVG IH (FR48): 16.0 and 12.0 and 23.5
  AVG Inf (FR1_D1 to D4): 6.0 and 7.3 and 9.3
  AVG Inf (FR1_Last 2 FR1 days): 6.5 and 7.5
  AVG Inf (FR1_Last 4 FR1 days): 6.0 and 7.0 and 8.3
  AVG Inf (FR3): 7.5 and 5.5 and 7.0
  AVG Inf (FR6): 8.0 and 6.5 and 7.0
  AVG Inf (FR12): 8.5 and 5.5 and 6.5
  AVG Inf (FR24): 5.0 and 5.5 and 6.5
  AVG Inf (FR48): 2.5
  AVG Inf (FR96): 1.0
  AVG Latency (FR1_D1 to D4): 0.7 and 1.3 and 0.8
  AVG Latency (FR3): 0.3 and 0.6 and 0.339
  AVG Latency (FR96): 0.8 and 0.7 and 0.9
